# Measured values reported in patent US6365191B1, “Formulations of paclitaxel, its derivatives or its analogs entrapped into nanoparticles of polymeric micelles, process for preparing same and the use thereof” (Dabur Research Foundation, priority 1999, dated 2002).
# Test: Stability of the resulting drug solutions (paclitaxel in nanoparticles of polymeric micelles)
# Type: physicochemical
# Method: (§1) The polymer (5 mg) was dissolved in 5 ml of the diluting fluid followed by the addition of the anionic surfactant sodium deoxycholate (5 mg) to obtain a clear solution. Paclitaxel solution in absolute alcohol (20 mg/ml) was then added to the solution of polymer and the surfactant to obtain drug concentrations of 0.1, 0.15 and 0.2 mg/ml. Different diluting fluids were tried and the stability of the resulting drug solutions are tabulated below:
# (§2) The polymer (5 mg) was dissolved in 5 ml of the diluting fluid followed by the addition of the anionic surfactant sodium deoxycholate (5 mg) to obtain a clear solution. Paclitaxel solution in absolute alcohol (20 mg/ml) was then added to the solution of polymer and the surfactant to get drug concentrations of 0.2, 0.25 and 0.3 mg/ml. The stability of the resulting drug solutions are tabulated below:
# as §1, with “of” for “of 0.1, 0.15 and”
# as §2, with “solution. pH of the resulting solution was adjusted with sodium citrate.” for “solution.”, “obtain” for “get”, “0.2” for “0.2, 0.25 and 0.3”, “Results” for “The stability of the resulting drug solutions”
# The requisite amount of polymer was dissolved in 5 ml of the diluting fluid followed by the addition of requisite amount of anionic surfactant sodium deoxycholate to obtain the concentrations shown in the table below. pH of the resulting solution was adjusted to 6.4-6.8 with sodium citrate. Paclitaxel solution in absolute alcohol (20 mg/ml) was then added to the solution of polymer and the surfactant to obtain drug concentrations of 0.2 mg/ml. Results are tabulated below:
# The polymer (0.625 mg) was dissolved in 5 ml of the diluting fluid followed by the addition of the anionic surfactant sodium deoxycholate to obtain a clear solution. pH of the resulting solution was adjusted to 6.4-6.8 with sodium citrate.
# Paclitaxel solution in absolute alcohol (20 mg/ml) was then added to the solution of polymer and the surfactant to obtain drug concentrations of 0.2 mg/ml. Results are tabulated below:
# The requisite amount of the polymer was dissolved in 5 ml of the diluting fluid followed by the addition of requisite amount of the anionic surfactant sodium deoxycholate to obtain the concentrations shown in the table below. pH of the resulting solution was adjusted to 6.4-6.8 with sodium citrate. Paclitaxel solution in absolute alcohol (20 mg/ml) was then added to the solution of polymer and the surfactant to get drug concentrations of 0.2, 0.5, 0.6, 0.7, 0.8, 2.4, 3.2, 4.0, and 10 mg/ml. Results are tabulated below:
# The polymer (1.5 mg) was dissolved in 5 ml of the diluting fluid followed by the addition of the anionic surfactant sodium to obtain concentrations of 0, 0.10, 0.15, 0.20 and 0.25 mg/ml. pH of the resulting solution was adjusted to 6.4-6.8 with sodium citrate. Paclitaxel solution in absolute alcohol (20 mg/ml) was then added to the solution of polymer and the surfactant to obtain drug concentrations of 0.6 mg/ml. Results are tabulated below:
# The required amount of the drug solution (3 ml) is added to the vehicle to obtain a drug concentration of 0.6 mg/ml. The perfusion fluid is stable for more than 12 hrs without any apparent signs of precipitation of drug. Stability is also indicated by the fact that more than 90% of the drug is available in solution form at the end of 24 hrs, when analyzed by HPLC.
smiles,measurement,setting,value
"CC(=O)O[C@H]1C(=O)[C@@]2(C)[C@H]([C@H](OC(=O)c3ccccc3)[C@]3(O)C[C@H](OC(=O)[C@H](O)[C@@H](NC(=O)c4ccccc4)c4ccccc4)C(C)=C1C3(C)C)[C@]1(OC(C)=O)CO[C@@H]1C[C@@H]2O [Paclitaxel, paclitaxel]",Stability,"Examples 1-9, row 1: Water for Injection, polymer 1 mg/ml, sodium DOC 1 mg/ml, paclitaxel 0.10 mg/ml, 10% loading",<1 h
same,Stability,"Examples 1-9, row 2: Water for Injection, polymer 1 mg/ml, sodium DOC 1 mg/ml, paclitaxel 0.15 mg/ml, 15% loading",<1 h
same,Stability,"Examples 1-9, row 3: Water for Injection, polymer 1 mg/ml, sodium DOC 1 mg/ml, paclitaxel 0.20 mg/ml, 20% loading",<1 h
same,Stability,"Examples 1-9, row 4: Normal Saline, polymer 1 mg/ml, sodium DOC 1 mg/ml, paclitaxel 0.10 mg/ml, 10% loading",<1 h
same,Stability,"Examples 1-9, row 5: Normal Saline, polymer 1 mg/ml, sodium DOC 1 mg/ml, paclitaxel 0.15 mg/ml, 15% loading",<1 h
same,Stability,"Examples 1-9, row 6: Normal Saline, polymer 1 mg/ml, sodium DOC 1 mg/ml, paclitaxel 0.20 mg/ml, 20% loading",<1 h
same,Stability,"Examples 1-9, row 7: 5% Dextrose, polymer 1 mg/ml, sodium DOC 1 mg/ml, paclitaxel 0.10 mg/ml, 10% loading",>8 h
same,Stability,"Examples 1-9, row 8: 5% Dextrose, polymer 1 mg/ml, sodium DOC 1 mg/ml, paclitaxel 0.15 mg/ml, 15% loading",>6 h
same,Stability,"Examples 1-9, row 9: 5% Dextrose, polymer 1 mg/ml, sodium DOC 1 mg/ml, paclitaxel 0.20 mg/ml, 20% loading",>4 h
same,Stability,"Examples 10-12, row 1: 5% Dextrose, polymer 1 mg/ml, sodium DOC 1 mg/ml, paclitaxel 0.20 mg/ml, 20% loading",>4 h
same,Stability,"Examples 10-12, row 2: 5% Dextrose, polymer 1 mg/ml, sodium DOC 1 mg/ml, paclitaxel 0.25 mg/ml, 25% loading",<4 h
same,Stability,"Examples 10-12, row 3: 5% Dextrose, polymer 1 mg/ml, sodium DOC 1 mg/ml, paclitaxel 0.30 mg/ml, 30% loading",<4 h
same,Stability,"Examples 13-14, row 1: 5% Dextrose (pH 5.1), polymer 1 mg/ml, sodium DOC 1 mg/ml, paclitaxel 0.20 mg/ml, 20% loading",>4 h
same,Stability,"Examples 13-14, row 2: 10% Dextrose (pH 5.1), polymer 1 mg/ml, sodium DOC 1 mg/ml, paclitaxel 0.20 mg/ml, 20% loading",>6 h
same,Stability,"Examples 15-17, row 1: 10% Dextrose (pH 3.9), polymer 1 mg/ml, sodium DOC 1 mg/ml, sodium citrate 0.00 mg/ml, pH 6.28, paclitaxel 0.20 mg/ml",<1 h
same,Stability,"Examples 15-17, row 2: 10% Dextrose (pH 3.9), polymer 1 mg/ml, sodium DOC 1 mg/ml, sodium citrate 0.06 mg/ml, pH 6.36, paclitaxel 0.20 mg/ml",>6 h
same,Stability,"Examples 15-17, row 3: 10% Dextrose (pH 3.9), polymer 1 mg/ml, sodium DOC 1 mg/ml, sodium citrate 0.12 mg/ml, pH 6.53, paclitaxel 0.20 mg/ml",>4 h
same,Stability,"Examples 19-23, row 1: 10% Dextrose, polymer 1 mg/ml, sodium DOC 1 mg/ml, pH 6.45, paclitaxel 0.20 mg/ml",>6 h
same,Stability,"Examples 19-23, row 2: 10% Dextrose, polymer 0.5 mg/ml, sodium DOC 0.5 mg/ml, pH 6.44, paclitaxel 0.20 mg/ml",>6 h
same,Stability,"Examples 19-23, row 3: 10% Dextrose, polymer 0.25 mg/ml, sodium DOC 0.25 mg/ml, pH 6.46, paclitaxel 0.20 mg/ml",>6 h
same,Stability,"Examples 19-23, row 4: 10% Dextrose, polymer 0.125 mg/ml, sodium DOC 0.125 mg/ml, pH 6.47, paclitaxel 0.20 mg/ml",>6 h
same,Stability,"Examples 19-23, row 5: 10% Dextrose, polymer 0.0625 mg/ml, sodium DOC 0.0625 mg/ml, pH 6.44, paclitaxel 0.20 mg/ml",<6 h
same,Stability,"Examples 24-27, row 1: 10% Dextrose, polymer 0.125 mg/ml, sodium DOC 0.03125 mg/ml, pH 6.4-6.8, paclitaxel 0.20 mg/ml",<1 h
same,Stability,"Examples 24-27, row 2: 10% Dextrose, polymer 0.125 mg/ml, sodium DOC 0.0625 mg/ml, pH 6.4-6.8, paclitaxel 0.20 mg/ml",<2 h
same,Stability,"Examples 24-27, row 3: 10% Dextrose, polymer 0.125 mg/ml, sodium DOC 0.09375 mg/ml, pH 6.4-6.8, paclitaxel 0.20 mg/ml",>6 h
same,Stability,"Examples 24-27, row 4: 10% Dextrose, polymer 0.125 mg/ml, sodium DOC 0.125 mg/ml, pH 6.4-6.8, paclitaxel 0.20 mg/ml",>6 h
same,Stability,"Examples 28-35: 10% Dextrose, polymer 0.125 mg/ml, sodium DOC 0.125 mg/ml, pH 6.4-6.8, paclitaxel 0.20 mg/ml",>6 h
same,Stability,"Examples 28-35: 10% Dextrose, polymer 0.125 mg/ml, sodium DOC 0.125 mg/ml, pH 6.4-6.8, paclitaxel 0.50 mg/ml",<4 h
same,Stability,"Examples 28-35: 10% Dextrose, polymer 0.125 mg/ml, sodium DOC 0.125 mg/ml, pH 6.4-6.8, paclitaxel 0.80 mg/ml",<2 h
same,Stability,"Examples 28-35: 10% Dextrose, polymer 0.125 mg/ml, sodium DOC 0.125 mg/ml, pH 6.4-6.8, paclitaxel 2.4 mg/ml",<1 h
same,Stability,"Examples 28-35: 10% Dextrose, polymer 0.125 mg/ml, sodium DOC 0.125 mg/ml, pH 6.4-6.8, paclitaxel 3.2 mg/ml",<0.5 h
same,Stability,"Examples 28-35: 10% Dextrose, polymer 0.125 mg/ml, sodium DOC 0.125 mg/ml, pH 6.4-6.8, paclitaxel 4.0 mg/ml",<0.25 h
same,Stability,"Examples 28-35: 10% Dextrose, polymer 0.125 mg/ml, sodium DOC 0.125 mg/ml, pH 6.4-6.8, paclitaxel 10.0 mg/ml",<0.083 h
same,Stability,"Examples 28-35: 10% Dextrose, polymer 0.2 mg/ml, sodium DOC 0.2 mg/ml, pH 6.4-6.8, paclitaxel 0.80 mg/ml",<3 h
same,Stability,"Examples 28-35: 10% Dextrose, polymer 0.3 mg/ml, sodium DOC 0.3 mg/ml, pH 6.4-6.8, paclitaxel 0.50 mg/ml",>6 h
same,Stability,"Examples 28-35: 10% Dextrose, polymer 0.3 mg/ml, sodium DOC 0.3 mg/ml, pH 6.4-6.8, paclitaxel 0.60 mg/ml",<6 h
same,Stability,"Examples 28-35: 10% Dextrose, polymer 0.3 mg/ml, sodium DOC 0.3 mg/ml, pH 6.4-6.8, paclitaxel 0.70 mg/ml",<4 h
same,Stability,"Examples 28-35: 10% Dextrose, polymer 0.3 mg/ml, sodium DOC 0.3 mg/ml, pH 6.4-6.8, paclitaxel 0.80 mg/ml",<2 h
same,Stability,"Examples 36-40, row 1: 10% Dextrose, polymer 0.3 mg/ml, sodium DOC 0 mg/ml, pH 6.4-6.8, paclitaxel 0.60 mg/ml",<0.5 h
same,Stability,"Examples 36-40, row 2: 10% Dextrose, polymer 0.3 mg/ml, sodium DOC 0.10 mg/ml, pH 6.4-6.8, paclitaxel 0.60 mg/ml",<1 h
same,Stability,"Examples 36-40, row 3: 10% Dextrose, polymer 0.3 mg/ml, sodium DOC 0.15 mg/ml, pH 6.4-6.8, paclitaxel 0.60 mg/ml",<4 h
same,Stability,"Examples 36-40, row 4: 10% Dextrose, polymer 0.3 mg/ml, sodium DOC 0.2 mg/ml, pH 6.4-6.8, paclitaxel 0.60 mg/ml",>8 h
same,Stability,"Examples 36-40, row 5: 10% Dextrose, polymer 0.3 mg/ml, sodium DOC 0.25 mg/ml, pH 6.4-6.8, paclitaxel 0.60 mg/ml",>8 h
